Measured values as given in US20220249447A1, “CF3-, OCF3-, SCF3-, and SF5-Containing Antibacterial Agents” (Purdue Research Foundation, priority 2019, published 2022).
In brackets after ≈: the same amount, converted by molar mass.

Tests used:
S. aureus = test: MIC, broth microdilution, S. aureus; assay type: cell-based; settings: Staphylococcus aureus
Method: (§1) Bacteria were cultured in cation-adjusted Mueller Hinton Broth (for strains in Tables 1-3) or Brain Heart Infusion broth (for Enterococcus faecium) or Tryptic Soy Broth (all other bacteria) in a 96-well plate at 37° C. for at least 20 hours. The MIC was classified as the lowest concentration where no visual growth of bacteria was observed. The minimum bactericidal concentration (MBC) was tested by spotting 4 μL from wells with no growth onto Tryptic Soy Agar (TSA) plates. Plates were incubated at 37° C. for at least 18 hours before recording the MBC.

MRSA ATCC 33592 = test: MIC, broth microdilution, MRSA ATCC 33592; assay type: cell-based, methicillin-resistant S. aureus; settings: Staphylococcus aureus
Method: All MRSA isolates were acquired from BEI Resources. The remaining bacteria were purchased from the American Type Culture Collection (ATCC).
as §1

Row | MIC (S. aureus) | MIC (MRSA ATCC 33592) | MIC (S. aureus; 20 h) | MIC (MRSA ATCC 33592; 20 h) | Compound
1 | 32 µg/mL (≈ 93.8 µM) | 32 µg/mL (≈ 93.8 µM) |  |  | O=C(Nc1nnc(-c2cccs2)o1)c1cnc(C(F)(F)F)nc1 [HSGN-190, N-(5-(thiophen-2-yl)-1,3,4-oxadiazol-2-yl)-2-(trifluoromethyl)pyrimidine-5-carboxamide]
2 | 32 µg/mL (≈ 87.4 µM) | 32 µg/mL (≈ 87.4 µM) |  |  | O=C(Nc1nnc(-c2cccnc2)o1)c1ccc(SC(F)(F)F)cc1 [HSGN-206, N-(5-(pyridin-3-yl)-1,3,4-oxadiazol-2-yl)-4-((trifluoromethyl)thio)benzamide]
3 | > 64 µg/mL | > 64 µg/mL |  |  | O=C(Nc1nnc(-c2cccs2)o1)c1cc(C(F)(F)F)n[nH]1 [HSGN-183, N-(5-(thiophen-2-yl)-1,3,4-oxadiazol-2-yl)-3-(trifluoromethyl)-1H-pyrazole-5-carboxamide]
4 | > 128 µg/mL | > 128 µg/mL |  |  | O=C(Nc1nnn(Cc2ccccc2)n1)c1ccc(S(F)(F)(F)(F)F)cc1 [HSGN-2136, N-(2-benzyl-2H-tetrazol-5-yl)-4-(pentafluoro-λ^6-sulfaneyl)benzamide]
5 | 2 µg/mL (≈ 5.22 µM) | 1 µg/mL (≈ 2.61 µM) |  |  | O=C(Nc1nnc(C2CCCC2)o1)c1ccc(S(F)(F)(F)(F)F)cc1 [HSGN-2143, N-(5-cyclopentyl-1,3,4-oxadiazol-2-yl)-4-(pentafluoro-16-sulfaneyl)benzamide]
6 | 16 µg/mL (≈ 50.4 µM) | 8 µg/mL (≈ 25.2 µM) |  |  | CSc1ccc(C(=O)Nc2nnc(-c3cccs3)o2)cc1 [HSGN-251, 4-(methylthio)-N-(5-(thiophen-2-yl)-1,3,4-oxadiazol-2-yl)benzamide]
7 | 0.0625 µg/mL (≈ 0.16 µM) | 0.0625 µg/mL (≈ 0.16 µM) |  |  | N#Cc1cccc(-c2nnc(NC(=O)c3ccc(SC(F)(F)F)cc3)o2)c1 [HSGN-283, N-(5-(3-cyanophenyl)-1,3,4-oxadiazol-2-yl)-4-((trifluoromethyl)thio)benzamide]
8 | 0.5 µg/mL (≈ 1.25 µM) | 0.5 µg/mL (≈ 1.25 µM) |  |  | O=C(Nc1nnc(-c2ccccc2Cl)o1)c1ccc(SC(F)(F)F)cc1 [HSGN-2115, N-(5-(2-chlorophenyl)-1,3,4-oxadiazol-2-yl)-4-((trifluoromethyl)thio)benzamide]
9 | 64 µg/mL (≈ 188 µM) | 32 µg/mL (≈ 94 µM) |  |  | O=C(Nc1nnc(-c2cccs2)o1)c1ccc(C(F)(F)F)cn1 [HSGN-172, N-(5-(thiophen-2-yl)-1,3,4-oxadiazol-2-yl)-5-(trifluoromethyl)picolinamide]
10 | 2 µg/mL (≈ 4.65 µM) | 1 µg/mL (≈ 2.33 µM) |  |  | COc1ccc(Cl)cc1-c1nnc(NC(=O)c2ccc(SC(F)(F)F)cc2)o1 [HSGN-252, N-(5-(5-chloro-2-methoxyphenyl)-1,3,4-oxadiazol-2-yl)-4-((trifluoromethyl)thio)benzamide]
11 | > 64 µg/mL | > 64 µg/mL |  |  | O=S(=O)(Nc1nnc(-c2cccc(Cl)c2)o1)c1ccc(SC(F)(F)F)cc1 [HSGN-256, N-(5-(3-chlorophenyl)-1,3,4-oxadiazol-2-yl)-4-((trifluoromethyl)thio)benzenesulfonamide]
12 | 16 µg/mL (≈ 46.2 µM) | 8 µg/mL (≈ 23.1 µM) |  |  | O=C(Nc1nnc(-c2cccs2)o1)c1ncc(C(F)(F)F)s1 [HSGN-168, N-(5-(thiophen-2-yl)-1,3,4-oxadiazol-2-yl)-5-(trifluoromethyl)thiazole-2-carboxamide]
13 | 0.5 µg/mL (≈ 1.17 µM) | 0.5 µg/mL (≈ 1.17 µM) |  |  | O=C(Nc1nnc(-c2cccc(Cl)c2)o1)c1cccc(S(F)(F)(F)(F)F)c1 [HSGN-2112, N-(5-(3-chlorophenyl)-1,3,4-oxadiazol-2-yl)-3-(pentafluoro-λ^6-sulfaneyl)benzamide]
14 | 32 µg/mL (≈ 94.9 µM) | 32 µg/mL (≈ 94.9 µM) |  |  | O=C(Nc1nnc(-c2cccs2)o1)c1ccc(OC(F)F)cc1 [HSGN-143, 4-(difluoromethoxy)-N-(5-(thiophen-2-yl)-1,3,4-oxadiazol-2-yl)benzamide]
15 | 16 µg/mL (≈ 40.5 µM) | 8 µg/mL (≈ 20.2 µM) |  |  | COc1ccc(-c2nnc(NC(=O)c3ccc(SC(F)(F)F)cc3)o2)cc1 [HSGN-207, N-(5-(4-methoxyphenyl)-1,3,4-oxadiazol-2-yl)-4-((trifluoromethyl)thio)benzamide]
16 | 4 µg/mL (≈ 11.6 µM) | 2 µg/mL (≈ 5.79 µM) |  |  | O=C(Nc1nnc(-c2cccs2)o1)c1ccc(C(F)(F)F)s1 [HSGN-170]
17 | 16 µg/mL (≈ 47 µM) | 8 µg/mL (≈ 23.5 µM) |  |  | O=C(Nc1nnc(-c2cccs2)o1)c1ccc(C(F)(F)F)nc1 [HSGN-171, N-(5-(thiophen-2-yl)-1,3,4-oxadiazol-2-yl)-6-(trifluoromethyl)nicotinamide]
18 | 2 µg/mL (≈ 5.19 µM) | 2 µg/mL (≈ 5.19 µM) |  |  | Cc1ccc(-c2nnc(NC(=O)c3ccc(SC(F)(F)F)cc3)o2)s1 [HSGN-258, N-(5-(5-methylthiophen-2-yl)-1,3,4-oxadiazol-2-yl)-4-((trifluoromethyl)thio)benzamide]
19 | 4 µg/mL (≈ 11.3 µM) | 2 µg/mL (≈ 5.66 µM) |  |  | O=C(Nc1nnc(-c2cccs2)o1)c1ccc(SC(F)F)cc1 [HSGN-250, 4-((difluoromethyl)thio)-N-(5-(thiophen-2-yl)-1,3,4-oxadiazol-2-yl)benzamide]
20 | 1 µg/mL (≈ 2.8 µM) | 0.5 µg/mL (≈ 1.4 µM) |  |  | CCCc1nnc(NC(=O)c2ccc(S(F)(F)(F)(F)F)cc2)o1 [HSGN-2142, 4-(pentafluoro-λ^6-sulfaneyl)-N-(5-propyl-1,3,4-oxadiazol-2-yl)benzamide]
21 | 0.0625 µg/mL (≈ 0.156 µM) | 0.0625 µg/mL (≈ 0.156 µM) |  |  | O=C(Nc1nnc(-c2ccc(Cl)cc2)o1)c1ccc(SC(F)(F)F)cc1 [HSGN-282, N-(5-(4-chlorophenyl)-1,3,4-oxadiazol-2-yl)-4-((trifluoromethyl)thio)benzamide]
22 | 1 µg/mL (≈ 2.5 µM) | 1 µg/mL (≈ 2.5 µM) |  |  | O=C(Nc1nnc(-c2cccc(Cl)c2)o1)c1cccc(SC(F)(F)F)c1 [HSGN-2111, N-(5-(3-chlorophenyl)-1,3,4-oxadiazol-2-yl)-3-((trifluoromethyl)thio)benzamide]
23 | 32 µg/mL (≈ 83.5 µM) | 32 µg/mL (≈ 83.5 µM) |  |  | O=C(Nc1nnc(C(F)(F)F)o1)c1ccc(S(F)(F)(F)(F)F)cc1 [HSGN-2141, 4-(pentafluoro-λ^6-sulfaneyl)-N-(5-(trifluoromethyl)-1,3,4-oxadiazol-2-yl)benzamide]
24 | > 64 µg/mL | > 64 µg/mL |  |  | O=S(=O)(Nc1nnc(-c2cccc(Cl)c2)o1)c1ccc(S(F)(F)(F)(F)F)cc1 [HSGN-255, N-(5-(3-chlorophenyl)-1,3,4-oxadiazol-2-yl)-4-(pentafluoro-δ6-sulfaneyl)benzenesulfonamide]
25 | > 64 µg/mL | > 64 µg/mL |  |  | O=C(Nc1noc(-c2ccc(C(F)(F)F)cc2)n1)c1ccc(SC(F)(F)F)cc1 [HSGN-257, N-(5-(4-(trifluoromethyl)phenyl)-1,2,4-oxadiazol-3-yl)-4-((trifluoromethyl)thio)benzamide]
26 |  |  | > 64 µg/mL | > 64 µg/mL | FC(F)(F)Sc1ccc(-n2cc(-c3nnc(-c4cccc(Cl)c4)o3)nn2)cc1 [HSGN-260]
27 | 1 µg/mL (≈ 3.04 µM) | 1 µg/mL (≈ 3.04 µM) |  |  | Cc1nnc(NC(=O)c2ccc(S(F)(F)(F)(F)F)cc2)o1 [HSGN-2140, N-(5-methyl-1,3,4-oxadiazol-2-yl)-4-(pentafluoro-λ^6-sulfaneyl)benzamide]
28 | 0.5 µg/mL (≈ 1.16 µM) | 0.5 µg/mL (≈ 1.16 µM) |  |  | COc1cc(Cl)cc(-c2nnc(NC(=O)c3ccc(SC(F)(F)F)cc3)o2)c1 [HSGN-266, N-(5-(3-chloro-5-methoxyphenyl)-1,3,4-oxadiazol-2-yl)-4-((trifluoromethyl)thio)benzamide]
29 | 16 µg/mL (≈ 37.3 µM) | 16 µg/mL (≈ 37.3 µM) |  |  | O=C(Nc1nnc(-c2cccc(Cl)c2)o1)c1ccc(OC(F)(F)F)c([N+](=O)[O-])c1 [HSGN-262, N-(5-(3-chlorophenyl)-1,3,4-oxadiazol-2-yl)-3-nitro-4-(trifluoromethoxy)benzamide]
